The results in this text go back to ChEMBL document CHEMBL1153521, “A novel decoy that interrupts G93A-superoxide dismutase gain of interaction with malate dehydrogenase improves survival in an amyotrophic lateral sclerosis cell model” (J Med Chem, 2009).

For data set [1], the system named is NSC-34. The experiment in a line: Inhibition of interaction of CFP-tagged human SOD1 G93A mutant with YFP-tagged MDH1 transfected in mouse NSC-34 cells by FRET assay. Type of data set: cell-based. On the set-up: scale not given: the % may be the effect or the level left.
Data set [2] is described as follows: Drug penetration in mouse NSC-34 cells at 1 uM after 24 hrs by fluorescence confocal microscopy. It is filed as ADME, cell-based. As to conditions: nsc-34, 24 h.
The subject of data set [3] is NSC-34. Kind of data set: Inhibition of interaction of human SOD1 G93A mutant with YFP-tagged MDH1 transfected in mouse NSC-34 cells after 48 hrs by pull-down immunoprecipitation analysis. Type of data set: cell-based.
A short description of data set [4]: Increase in ATP level in mouse NSC-34 cells expressing human SOD1 G93A mutant at 1 uM after 48 hrs relative to cells expressing wild type human SOD1. It is filed as functional.
Data set [5] in a line: Protective effect against rotenone-induced toxicity in mouse NSC-34 cells expressing GFP-tagged human SOD1 G93A mutant assessed as increase in survival at 1 uM after 48 hrs by methylene blue assay relative to rotenone-treated cells expressing GFP-tagged wild type human SOD1. Type of data set: functional.
Data set [6] is described as follows: Protective effect against 2 mg/ml glucose-induced toxicity in mouse NSC-34 cells expressing GFP-tagged human SOD1 G93A mutant assessed as increase in survival at 1 uM after 48 hrs by methylene blue assay relative to 2 mg/ml glucose-treated cells expressing GFP-tagged wild type human SOD1. Type of data set: functional.

Active and inactive are the calls of the source. The calls are words filed in the database; no cut-off is given here. Peptide text beside a SMILES is read from it. * marks the point of attachment. X1 = CN(C)c1ccc2c(-c3ccc(C(=O)*)cc3C(=O)O)c3ccc(=[N+](C)C)cc-3oc2c1

As to H-GQIAYSLLYSIGNGS-OH, the outcome in data set [1] was inactive.
As to `CC(C)C[C@H](NC(=O)[C@H](CC(N)=O)NC(=O)c1ccc(-c2c3ccc(=[N+](C)C)cc-3oc3cc(N(C)C)ccc23)c(C(=O)O)c1)C(=O)N[C@@H](CO)C(=O)O`, in data set [2], the Drug uptake was found to be 100%. For the same compound, the inhibition result in data set [3] was “inactive”.
With H-SWLKGEFITTVQQRGAAVIKARK-OH, in data set [1], the Activity amounted to 79%.
In data set [2], `CC[C@H](C)[C@H](NC(=O)[C@H](Cc1ccccc1)NC(=O)[C@H](CCC(=O)O)NC(=O)CNC(=O)[C@H](CCCCN)NC(=O)[C@H](CC(C)C)NC(=O)[C@H](Cc1c[nH]c2ccccc12)NC(=O)[C@H](CO)NC(=O)c1ccc(-c2c3ccc(=[N+](C)C)cc-3oc3cc(N(C)C)ccc23)c(C(=O)O)c1)C(=O)N[C@H](C(=O)N[C@H](C(=O)N[C@H](C(=O)N[C@@H](CCC(N)=O)C(=O)N[C@@H](CCC(N)=O)C(=O)N[C@@H](CCCNC(=N)N)C(=O)NCC(=O)N[C@@H](C)C(=O)N[C@@H](C)C(=O)N[C@H](C(=O)N[C@H](C(=O)N[C@@H](CCCCN)C(=O)N[C@@H](C)C(=O)N[C@@H](CCCNC(=N)N)C(=O)N[C@@H](CCCCN)C(=O)O)[C@@H](C)CC)C(C)C)C(C)C)[C@@H](C)O)[C@@H](C)O` (X1-SWLKGEFITTVQQRGAAVIKARK-OH) yielded a Drug uptake of 100%. In addition, in data set [3], the inhibition entry is “Active”. Further, the Activity in data set [4] is recorded as 90%; in data set [5], 98%; in data set [6] it was 97%.
